# Measured values as given in ChEMBL document CHEMBL1201862, “PubChem BioAssay data set” (2004).
#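 Dose response: 5 concentrations. Exposure: 48 h. Format: 96-well plates. Endpoint: linear interpolation; highest concentration if not reached. GI50 = concentration required for 50% inhibition of growth.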 Calls of active or inactive are those of the source. Cut-off read from the data, not from the text of the source: active = GI50 up to about 1.1 µM and inactive = higher.
# Columns and labels:
# Test in all cases: growth of human tumour cells (NCI), 48 h
# [1] = test system: ACHN
# [2] = test system: HOP-62
# [3] = test system: KM12
# [4] = test system: LOX IMVI
# [5] = test system: M14
# [6] = test system: MDA-MB-435
# [7] = test system: Malme-3M
# [8] = test system: SNB-19
# [9] = test system: SNB-75
# [10] = test system: TK-10
# [11] = test system: UACC-257
# [12] = test system: HCC 2998
# [13] = test system: DLD-1
# [14] = test system: DMS-114
# [15] = test system: DMS-273
# [16] = test system: HOP-18
# [17] = test system: KM-20L2
# [18] = test system: M19-MEL
# [19] = test system: XF498
# [20] = test system: LXFL 529
SMILES,GI50 [1],GI50 [2],GI50 [3],GI50 [4],GI50 [5],GI50 [6],GI50 [7],GI50 [8],GI50 [9],GI50 [10],GI50 [11],GI50 [12],GI50 [13],GI50 [14],GI50 [15],GI50 [16],GI50 [17],GI50 [18],GI50 [19],GI50 [20]
CC1(C)CCC(C)(C)c2c1ccc(O)c2Cc1c(O)ccc2c1C(C)(C)CCC2(C)C,1.74 µM (inactive),2.19 µM (inactive),1.95 µM (inactive),1.84 µM (inactive),1.88 µM (inactive),1.87 µM (inactive),2.7 µM (inactive),2.28 µM (inactive),2.01 µM (inactive),1.98 µM (inactive),1.85 µM (inactive),–,–,–,–,–,–,–,–,–
C=CS(=O)(=O)c1c2cc(OC)ccc2nc2ccc(OC)cc12,3.35 µM (inactive),14.8 µM (inactive),9.89 µM (inactive),2.21 µM (inactive),7.46 µM (inactive),5.58 µM (inactive),2.04 µM (inactive),12.6 µM (inactive),12.4 µM (inactive),7.62 µM (inactive),7.53 µM (inactive),7.91 µM (inactive),–,–,–,–,–,–,–,–
Cc1cccc2nc3c(C(=O)NCCN(C)C)cccc3cc12,–,1.72 µM (inactive),2.29 µM (inactive),1.26 µM (inactive),–,–,1.38 µM (inactive),0.94 µM (active),2.25 µM (inactive),–,0.893 µM (active),2.05 µM (inactive),1.42 µM (inactive),1.31 µM (inactive),0.929 µM (active),2.04 µM (inactive),1.41 µM (inactive),1.52 µM (inactive),1.58 µM (inactive),–
Clc1nc(Cl)nc(Nc2cccc3ccccc23)n1,> 10 µM (inactive),> 10 µM (inactive),> 10 µM (inactive),> 10 µM (inactive),> 10 µM (inactive),> 10 µM (inactive),> 10 µM (inactive),> 10 µM (inactive),> 10 µM (inactive),> 10 µM (inactive),–,> 10 µM (inactive),–,–,–,–,–,–,–,–
COC(=O)c1c(O)ccc2c1c1c(n2Cc2cccc(C)c2)C(=O)c2ccccc2C1,21.1 µM (inactive),10.4 µM (inactive),–,19.8 µM (inactive),14.5 µM (inactive),11.4 µM (inactive),13.5 µM (inactive),> 75 µM (inactive),–,22 µM (inactive),46.1 µM (inactive),–,–,–,–,–,–,–,–,–
CN(C)CCNC(=O)c1cccc2[nH]c(-c3ccc(Cl)cc3)nc12,–,8.77 µM (inactive),6.95 µM (inactive),4.42 µM (inactive),–,–,6.82 µM (inactive),7.87 µM (inactive),4.4 µM (inactive),–,7.78 µM (inactive),4.05 µM (inactive),4.8 µM (inactive),8.61 µM (inactive),4.03 µM (inactive),14.4 µM (inactive),5.14 µM (inactive),6.98 µM (inactive),4.49 µM (inactive),–
C=CCOC1=C(OCC=C)C(C2COC(C)(C)O2)OC1=O (stereo not given),> 100 µM (inactive),> 100 µM (inactive),> 100 µM (inactive),33.2 µM (inactive),> 100 µM (inactive),> 100 µM (inactive),> 100 µM (inactive),> 100 µM (inactive),> 100 µM (inactive),> 100 µM (inactive),> 100 µM (inactive),> 100 µM (inactive),–,–,–,–,–,–,–,–
CC(=O)NNc1nc(C)c(C(=O)NNC(=O)C(=O)Nc2cccc(C(C)=O)c2)s1,16.9 µM (inactive),25.3 µM (inactive),24.7 µM (inactive),21.2 µM (inactive),–,–,–,41 µM (inactive),17.3 µM (inactive),16.9 µM (inactive),23.1 µM (inactive),17.3 µM (inactive),28.1 µM (inactive),18.3 µM (inactive),34.8 µM (inactive),–,59 µM (inactive),19.9 µM (inactive),16.4 µM (inactive),–
O=C1NCN(c2ccccc2)C12CCN(CCCN1CCN(CCOC(c3ccc(F)cc3)c3ccc(F)cc3)CC1)CC2,1.99 µM (inactive),1.95 µM (inactive),2.43 µM (inactive),1.86 µM (inactive),1.88 µM (inactive),1.76 µM (inactive),1.37 µM (inactive),2.72 µM (inactive),–,1.75 µM (inactive),1.85 µM (inactive),1.51 µM (inactive),–,–,–,–,–,–,–,–
CC(NCCS(=O)(=O)O)C(=O)O (stereo not given),–,> 100 µM (inactive),> 100 µM (inactive),> 100 µM (inactive),–,–,> 100 µM (inactive),> 100 µM (inactive),> 100 µM (inactive),–,> 100 µM (inactive),> 100 µM (inactive),> 100 µM (inactive),> 100 µM (inactive),> 100 µM (inactive),> 100 µM (inactive),> 100 µM (inactive),> 100 µM (inactive),> 100 µM (inactive),–
CCCCP1(=O)C=CC(Cl)=C(C)C1 (stereo not given),> 100 µM (inactive),> 100 µM (inactive),> 100 µM (inactive),–,> 100 µM (inactive),–,> 100 µM (inactive),–,–,> 100 µM (inactive),> 100 µM (inactive),> 100 µM (inactive),> 100 µM (inactive),–,–,> 100 µM (inactive),> 100 µM (inactive),> 100 µM (inactive),–,> 100 µM (inactive)
C=CCN(N=O)C(=O)N(CCC)CCCCC(NC(C)=O)C(=O)NCc1ccccc1 (stereo not given),> 100 µM (inactive),> 100 µM (inactive),59.4 µM (inactive),67.1 µM (inactive),> 100 µM (inactive),–,> 100 µM (inactive),> 100 µM (inactive),71.8 µM (inactive),> 100 µM (inactive),> 100 µM (inactive),–,–,59.2 µM (inactive),> 100 µM (inactive),> 100 µM (inactive),91.6 µM (inactive),56 µM (inactive),> 100 µM (inactive),62.5 µM (inactive)
COC(=O)C1CCC(=O)N1C(=O)Cc1ccc(OC)cc1 (stereo not given),> 100 µM (inactive),–,> 100 µM (inactive),> 100 µM (inactive),> 100 µM (inactive),–,–,> 100 µM (inactive),> 100 µM (inactive),> 100 µM (inactive),> 100 µM (inactive),–,–,> 100 µM (inactive),> 100 µM (inactive),–,> 100 µM (inactive),> 100 µM (inactive),> 100 µM (inactive),> 100 µM (inactive)
CC(C)C1NC(=O)CC(c2ccccc2)N(N=O)C1c1ccccc1 (stereo not given),–,> 100 µM (inactive),> 100 µM (inactive),> 100 µM (inactive),–,–,> 100 µM (inactive),> 100 µM (inactive),> 100 µM (inactive),–,> 100 µM (inactive),> 100 µM (inactive),> 100 µM (inactive),> 95.7 µM (inactive),> 100 µM (inactive),> 100 µM (inactive),> 100 µM (inactive),> 100 µM (inactive),37.8 µM (inactive),–
Nc1nc(N)c2c(n1)NC(=O)c1c(c3ccccc3n1Cc1ccc(Cl)cc1)C2,–,25.5 µM (inactive),–,19.1 µM (inactive),37.8 µM (inactive),18.8 µM (inactive),55.3 µM (inactive),> 100 µM (inactive),17.9 µM (inactive),21.5 µM (inactive),64.1 µM (inactive),17.8 µM (inactive),–,–,–,–,–,–,–,–
c1ccc(/N=C2\S/C(=N\C3CCCCC3)N(C3CCCCC3)\C2=N/c2ccccc2)cc1,–,> 100 µM (inactive),> 100 µM (inactive),–,> 100 µM (inactive),> 100 µM (inactive),> 100 µM (inactive),> 100 µM (inactive),> 100 µM (inactive),–,–,> 100 µM (inactive),–,–,–,–,–,–,–,–
CO/C=C1\OC(=O)C=C1OC,–,–,> 100 µM (inactive),> 100 µM (inactive),–,–,> 100 µM (inactive),> 100 µM (inactive),> 100 µM (inactive),–,> 100 µM (inactive),> 100 µM (inactive),> 100 µM (inactive),> 100 µM (inactive),> 100 µM (inactive),> 100 µM (inactive),–,> 100 µM (inactive),> 100 µM (inactive),–
c1ccc(COC2(OCc3ccccc3)CC3OC2C2NN=NC32)cc1 (stereo not given),> 100 µM (inactive),41.9 µM (inactive),28.7 µM (inactive),16.8 µM (inactive),18.5 µM (inactive),–,22.4 µM (inactive),–,16.9 µM (inactive),–,18.5 µM (inactive),> 10 µM (inactive),15.8 µM (inactive),–,21.2 µM (inactive),36.2 µM (inactive),54.6 µM (inactive),17.7 µM (inactive),19.3 µM (inactive),15.3 µM (inactive)
CC1(C)COC(/C=C/C2=NC(C)(C)CO2)=N1,17.4 µM (inactive),18.9 µM (inactive),13.9 µM (inactive),3.25 µM (inactive),14.7 µM (inactive),23.7 µM (inactive),17.5 µM (inactive),68.5 µM (inactive),> 100 µM (inactive),11.3 µM (inactive),29.6 µM (inactive),–,–,–,–,–,–,–,–,–
O=C(O)CNS(=O)(=O)c1ccc(NC(=O)Nc2ccccc2)cc1,–,> 100 µM (inactive),> 100 µM (inactive),> 100 µM (inactive),–,–,> 100 µM (inactive),> 100 µM (inactive),> 100 µM (inactive),–,> 100 µM (inactive),> 100 µM (inactive),> 100 µM (inactive),> 100 µM (inactive),> 100 µM (inactive),> 100 µM (inactive),> 100 µM (inactive),> 38 µM (inactive),> 100 µM (inactive),–
COc1ccc(C2C(Cl)C(=O)N2NC(=O)c2ccccc2O)cc1 (stereo not given),–,> 100 µM (inactive),> 100 µM (inactive),–,> 100 µM (inactive),–,> 100 µM (inactive),> 100 µM (inactive),> 100 µM (inactive),> 100 µM (inactive),> 100 µM (inactive),–,–,> 100 µM (inactive),–,–,> 100 µM (inactive),> 100 µM (inactive),–,> 100 µM (inactive)
